Data reported in patent USRE31463E, “Radiopharmaceutical chelates and method of external imaging” (priority 1980, dated 1983).
Like-named read-outs stand apart in the source and are kept apart here.

Experiments:
[1] = mouse, in vivo, iv; for injected dose in the blood: 60 min
[2] = Biodistribution in mice after intravenous injection (organ activities by scintillation counter); conditions: i.v., 60 minutes

| Substance | blood clearance [1] | injected dose in the intestines ([1]; 30 min) | injected dose in the blood [1] | route of elimination / renal clearance [1] | other results |
| --- | --- | --- | --- | --- | --- |
| technetium-99m chelate of N-(o-bromobenzyl) iminodiacetic acid [Example 13] | rapid blood clearance | 30% | less than 5% |  |  |
| gallium-67 chelate of methyliminodiacetic acid [Example 15] |  |  |  | rapid renal clearance |  |
| gallium-67 chelate of 8-hydroxyquinoline [Example 9] |  |  |  |  | injected dose in the blood [2]: 20%; injected dose in the intestines [2]: 13%; injected dose in the liver [2]: 25% |
| technetium-99m chelate of 10-carboxydecyliminodiacetic acid [Example 12] | rapid blood clearance |  | less than 6% | eliminated through both kidneys and liver | persistent activity in organs [1]: persistent activity noted in the liver and lungs |
| technetium-99m chelate of nitrilotriacetic acid [Example 10] |  |  |  | rapidly clear through the kidneys to urine | injected dose found in the liver and intestines [1]: less than 5%; eliminated in urine ([1]; 1 h): 40% |
| cobalt-57 chelate of N-[N'-(2,6-dimethylphenyl) carbamoylmethyl] iminodiacetic acid [Example 11] |  | 12% |  |  | injected dose in the liver ([1]; 30 min): 28% |
